Assays:
Assay type in all cases: cell-based
[1] = test system: MDA-MB-231: estrogen independent human breast adenocarcinoma; experiment: Cell death of MDA-MB-231 cells after drug with or without pLINFU sonoporation
Protocol: (§1) The system of the present invention was tested in vitro using two cellular lines of human breast cancer and one cellular line of human pancreatic adenocarcinoma. In particular the following cellular lines were employed: • MCF-7: human breast ductal carcinoma; • MDA-MB-231: estrogen independent human breast adenocarcinoma; • MiaPaCa-2: human pancreatic adenocarcinoma.
(§2) For each combination the percentage of cell death was measured in three main experimental conditions: • administration of the drug (hereinafter named “NO-US” condition); • administration of the drug and simultaneous administration of non focalized pulsed low-intensity ultrasound with a frequency of 1 MHz and a period of 1 second, said drug being administered in a unique dose; • 1 administration of non focalized pulsed low-intensity ultrasound with a frequency of 1 MHz and a period of 1 second, followed by administration of the drug; and • administration of the drug and simultaneous administration of non focalized pulsed low-intensity ultrasound with a frequency of 1 MHz and a period of 1 second, said drug being administered in two doses of equal concentration (hereinafter termed “US-DC” condition).
(§3) All the experimental conditions, other than NO-US, were replicated for different values of duty cycle and each experimental condition were replicated for three different total concentrations of drugs. Several operation times were also tested for each cellular lines and for each type of drug.

[2] = test system: MCF-7: human breast ductal carcinoma; experiment: Cell death of MCF-7 cells after drug with or without pLINFU sonoporation
Protocol: as §1, §2, §3

[3] = test system: MiaPaCa-2: human pancreatic adenocarcinoma; experiment: Cell death of MiaPaCa-2 cells after drug with or without pLINFU sonoporation; conditions: MiaPaCa2
Protocol: as §1, §2, §3

[4] = total concentration 100 μg/ml, NO-US (no ultrasound)
[5] = total concentration 100 μg/ml, US-DC = 9%
[6] = total concentration 100 μg/ml, US-DC = 9% (pLINFU 1 MHz, 20 s + 20 s)
[7] = total concentration 100 μg/ml, US-DC = 12%
[8] = total concentration 100 μg/ml, US-DC = 12% (pLINFU 1 MHz, 20 s + 20 s)
[9] = total concentration 500 μg/ml, NO-US (no ultrasound)
[10] = total concentration 500 μg/ml, US-DC = 9%
[11] = total concentration 500 μg/ml, US-DC = 9% (pLINFU 1 MHz, 20 s + 20 s)
[12] = total concentration 500 μg/ml, US-DC = 12%
[13] = total concentration 500 μg/ml, US-DC = 12% (pLINFU 1 MHz, 20 s + 20 s)
[14] = total concentration 1000 μg/ml, US-DC = 9%
[15] = total concentration 1000 μg/ml, US-DC = 9% (pLINFU 1 MHz, 20 s + 20 s)
[16] = total concentration 1000 μg/ml, US-DC = 12%
[17] = total concentration 0.5 μM, NO-US (no ultrasound)
[18] = total concentration 0.5 μM, US-DC = 9%
[19] = total concentration 0.5 μM, US-DC = 9% (pLINFU 1 MHz, 20 s + 20 s)
[20] = total concentration 0.5 μM, US-DC = 12%
[21] = total concentration 0.5 μM, US-DC = 12% (pLINFU 1 MHz, 20 s + 20 s)
[22] = total concentration 10 μM, NO-US (no ultrasound)
[23] = total concentration 10 μM, US-DC = 9%
[24] = total concentration 10 μM, US-DC = 9% (pLINFU 1 MHz, 20 s + 20 s)
[25] = total concentration 10 μM, US-DC = 12%
[26] = total concentration 10 μM, US-DC = 12% (pLINFU 1 MHz, 20 s + 20 s)
[27] = total concentration 50 μM, NO-US (no ultrasound)
[28] = total concentration 50 μM, US-DC = 9%
[29] = total concentration 50 μM, US-DC = 9% (pLINFU 1 MHz, 20 s + 20 s)
[30] = total concentration 50 μM, US-DC = 12%
[31] = total concentration 50 μM, US-DC = 12% (pLINFU 1 MHz, 20 s + 20 s)

COc1cccc2c1C(=O)c1c(O)c3c(c(O)c1C2=O)C[C@@](O)(C(=O)CO)C[C@@H]3O[C@H]1C[C@H](N)[C@H](O)[C@H](C)O1 [Doxorubicin]
Cell Death % [1, 4]: 10.9% | Increasing % vs NO-US [1, 5]: +116% | Cell Death % [1, 6]: 23.5% | Increasing % vs NO-US [1, 7]: +11.8% | Cell Death % [1, 8]: 12% | Cell Death % [1, 9]: 22.8% | Increasing % vs NO-US [1, 10]: +70.5% | Cell Death % [1, 11]: 38.8% | Increasing % vs NO-US [1, 12]: +18.4% | Cell Death % [1, 13]: 27% | Increasing % vs NO-US [1, 14]: +11.1% | Cell Death % [1, 15]: 60.5% | Increasing % vs NO-US [1, 16]: +0.3% | Cell Death % [2, 4]: 17.1% | Increasing % vs NO-US [2, 5]: +74.4% | Cell Death % [2, 6]: 29.8% | Increasing % vs NO-US [2, 7]: +64.9% | Cell Death % [2, 8]: 28.2% | Cell Death % [2, 9]: 23.3% | Increasing % vs NO-US [2, 10]: +102.5% | Cell Death % [2, 11]: 47.2% | Increasing % vs NO-US [2, 12]: +114.2% | Cell Death % [2, 13]: 49.9% | Cell Death % ([2]; total concentration 1000 μg/ml, NO-US (no ultrasound)): 59% | Increasing % vs NO-US [2, 14]: +19.7% | Cell Death % [2, 15]: 70.6%^ | Increasing % vs NO-US [2, 16]: +39% | Cell Death % ([2]; total concentration 1000 μg/ml, US-DC = 12% (pLINFU 1 MHz, 20 s + 20 s)): 82%

CCc1c2c(nc3ccc(OC(=O)N4CCC(N5CCCCC5)CC4)cc13)-c1cc3c(c(=O)n1C2)COC(=O)[C@]3(O)CC [Irinotecan]
Cell Death % ([3]; total concentration 0.05 μM, NO-US (no ultrasound)): 11.5% | Increasing % vs NO-US ([3]; total concentration 0.05 μM, US-DC = 1%): +120.8% | Cell Death % ([3]; total concentration 0.05 μM, US-DC = 1% (pLINFU 1 MHz, 20 s + 20 s)): 25.4% | Increasing % vs NO-US ([3]; total concentration 0.05 μM, US-DC = 12%): +60.6% | Cell Death % ([3]; total concentration 0.05 μM, US-DC = 12% (pLINFU 1 MHz, 20 s + 20 s)): 18.5% | Cell Death % ([3]; total concentration 1 μM, NO-US (no ultrasound)): 21.1% | Increasing % vs NO-US ([3]; total concentration 1 μM, US-DC = 1%): +62.9% | Cell Death % ([3]; total concentration 1 μM, US-DC = 1% (pLINFU 1 MHz, 20 s + 20 s)): 34.3% | Increasing % vs NO-US ([3]; total concentration 1 μM, US-DC = 12%): +42.5% | Cell Death % ([3]; total concentration 1 μM, US-DC = 12% (pLINFU 1 MHz, 20 s + 20 s)): 30% | Cell Death % ([3]; total concentration 50 μM (irinotecan series), NO-US (no ultrasound)): 56.7% | Increasing % vs NO-US ([3]; total concentration 50 μM (irinotecan series), US-DC = 1%): +31.1% | Cell Death % ([3]; total concentration 50 μM (irinotecan series), US-DC = 1% (pLINFU 1 MHz, 20 s + 20 s)): 74.3% | Increasing % vs NO-US ([3]; total concentration 50 μM (irinotecan series), US-DC = 12%): +16.5% | Cell Death % ([3]; total concentration 50 μM (irinotecan series), US-DC = 12% (pLINFU 1 MHz, 20 s + 20 s)): 66%

CC(=O)O[C@H]1C(=O)[C@@]2(C)[C@H]([C@H](OC(=O)c3ccccc3)[C@]3(O)C[C@H](OC(=O)[C@H](O)[C@@H](NC(=O)c4ccccc4)c4ccccc4)C(C)=C1C3(C)C)[C@]1(OC(C)=O)CO[C@@H]1C[C@@H]2O [Paclitaxel]
Cell Death % [1, 17]: 6.4% | Increasing % vs NO-US [1, 18]: +76.6% | Cell Death % [1, 19]: 11.3% | Increasing % vs NO-US [1, 20]: −7.8% | Cell Death % [1, 21]: 5.9% | Cell Death % [1, 22]: 6.4% | Increasing % vs NO-US [1, 23]: +128.4% | Cell Death % [1, 24]: 14.7% | Increasing % vs NO-US [1, 25]: +15% | Cell Death % [1, 26]: 7.4% | Cell Death % [1, 27]: 7.9% | Increasing % vs NO-US [1, 28]: +221.9% | Cell Death % [1, 29]: 25.5% | Increasing % vs NO-US [1, 30]: +55.3% | Cell Death % [1, 31]: 12.3% | Cell Death % [3, 17]: 45.5% | Increasing % vs NO-US ([3]; total concentration 0.5 μM, US-DC = 1%): 40.1% | Cell Death % ([3]; total concentration 0.5 μM, US-DC = 1% (pLINFU 1 MHz, 20 s + 20 s)): 22.7% | Increasing % vs NO-US [3, 20]: 17.1% | Cell Death % [3, 21]: 12.7% | Cell Death % [3, 22]: 65.3% | Increasing % vs NO-US ([3]; total concentration 10 μM, US-DC = 1%): +22.7% | Cell Death % ([3]; total concentration 10 μM, US-DC = 1% (pLINFU 1 MHz, 20 s + 20 s)): 12.8% | Increasing % vs NO-US [3, 25]: +12.7% | Cell Death % [3, 26]: 9.2% | Cell Death % [3, 27]: 80.2% | Increasing % vs NO-US ([3]; total concentration 50 μM, US-DC = 1%): +12.8% | Cell Death % ([3]; total concentration 50 μM, US-DC = 1% (pLINFU 1 MHz, 20 s + 20 s)): 90.5% | Increasing % vs NO-US [3, 30]: +9.2% | Cell Death % [3, 31]: 87.6% | Cell Death % [2, 17]: 1.0% | Increasing % vs NO-US [2, 18]: +807.5% | Cell Death % [2, 19]: 9.1% | Increasing % vs NO-US [2, 20]: +242.5% | Cell Death % [2, 21]: 3.4% | Cell Death % [2, 22]: 4.1% | Increasing % vs NO-US [2, 23]: +484.7% | Cell Death % [2, 24]: 24% | Increasing % vs NO-US [2, 25]: +221.6% | Cell Death % [2, 26]: 13.2% | Cell Death % [2, 27]: 7.2% | Increasing % vs NO-US [2, 28]: +354.2% | Cell Death % [2, 29]: 32.7% | Increasing % vs NO-US [2, 30]: +147.3% | Cell Death % [2, 31]: 17.8%
